Measurements: patent publication US20080114066A1, “Synergistic Effects Of Docosahexaenoic Acid (DHA) And Carotenoid Absorption Of Cognitive Function” (Trustees of Tufts College, priority 2005, published 2008)

How the values were obtained:
Assay type in all cases: in vivo, human
[1] = system: non-smoking women (60-80 years); test: Verbal Fluency Test; conditions: group mean
Excerpt: (§1) Subjects: Fifty non-smoking women (60-80 years) were recruited from the general population for a 4 month supplementation study. All subjects underwent a screening examination that includes a medical history, a physical examination, and a routine blood clinical chemistry profile. Volunteers with any history or biochemical evidence of lactose intolerance, liver, kidney, or pancreatic disease, anemia, active bowel disease or resection, insulin-dependent diabetes, easy bruising or bleeding, bleeding disorders, hyperglyceridemia, hyperlipidproteinemia, or alcoholism were excluded from the study. Moreover, individuals taking mineral oil or medications suspected of interfering with fat-soluble vitamin absorption were excluded. Subjects using steroids or non-steroid anti-inflammatory drugs, or antihistamine drugs were excluded. […] Subjects were excluded if they have taken any nutrient supplement for 2 months or more before admission into the study or carotene supplements 6 months or more before the study. Smoking was not permitted during the course of the study.
Women were randomly assigned to one of four groups: Control (n=10), DHA (n=14, DHA 800 mg/d), lutein (n=12, lutein 12 mg/d), and lutein+DHA (n=14, lutein 12 mg/d; DHA 800 mg/d) (C, D, L, and LD, respectively). The supplement type was randomized. Subjects visited the Jean Mayer USDA Human Nutrition Research Center on Aging at Tufts University on days that supplements were distributed and blood obtained (0 mo-baseline, 2 mo, and 4 mo). Subjects were instructed to take the supplement with a nutritional energy drink (8 oz., Boost®, Mead Johnson Nutritionals) but were otherwise asked to not alter their diets. The diet of each subject was monitored with food frequency questionnaires (Block G, et al., A data-based approach to diet questionnaire design and testing. Am J Epidemiol, 1986. 24: p. 453-469) completed at baseline, 2 months and 4 months to be sure that there were no confounding changes in dietary intake. All subjects completed at least two sets of cognitive and mood self-report tests, at the beginning of the study, then at the end of the study, after four months of supplementation, at the Schepens Eye Research Institute. Compliance was by monitored by interview, compliance calendars and capsule count. Both the subjects and the experimenter were masked to the experimental groups. Blood samples were collected at baseline, 2 months and 4 months, and serum was separated from red blood cells (800×g, 10 minutes). Aliquots of serum are stored at −70° C. until analyzed. […]

[2] = system: non-smoking women (60-80 years); test: MIR (Memory in Reality) apartment test; conditions: group mean
Excerpt: as §1
(§2) Women were randomly assigned to one of four groups: Control (n=10), DHA (n=14, DHA 800 mg/d), lutein (n=12, lutein 12 mg/d), and lutein+DHA (n=14, lutein 12 mg/d; DHA 800 mg/d) (C, D, L, and LD, respectively). The supplement type was randomized. Subjects visited the Jean Mayer USDA Human Nutrition Research Center on Aging at Tufts University on days that supplements were distributed and blood obtained (0 mo-baseline, 2 mo, and 4 mo). Subjects were instructed to take the supplement with a nutritional energy drink (8 oz., Boost®, Mead Johnson Nutritionals) but were otherwise asked to not alter their diets. The diet of each subject was monitored with food frequency questionnaires (Block G, et al., A data-based approach to diet questionnaire design and testing. Am J Epidemiol, 1986. 24: p. 453-469) completed at baseline, 2 months and 4 months to be sure that there were no confounding changes in dietary intake. All subjects completed at least two sets of cognitive and mood self-report tests, at the beginning of the study, then at the end of the study, after four months of supplementation, at the Schepens Eye Research Institute. Compliance was by monitored by interview, compliance calendars and capsule count. Both the subjects and the experimenter were masked to the experimental groups. Blood samples were collected at baseline, 2 months and 4 months, and serum was separated from red blood cells (800×g, 10 minutes). Aliquots of serum are stored at −70° C. until analyzed. At baseline and 2 months, a two month supply of placebo supplements, DHA (800 mg/d, DHASCO, Martek Biological Sciences), lutein (12 mg/d plus 0.5 mg zeaxanthin, Kemin Foods), or lutein+DHA (12 mg/d and 800 mg/d, respectively and nutritional energy drink was provided. At baseline and 4 months, subjects visited the Schepens Eye Research Institute (Boston, Mass.) for testing of MP optical density (MPOD) and an ophthalmic exam. There were two visits at each time point.
(§3) Supplementation Protocol. Dietary supplements in capsule form were Lutein (12 mg/day) (Kemin Foods) and Docosahexaenoic Acid (DHASCO) (800 mg/day) (Martek Biological Sciences). Participants in each of the four supplementation groups were instructed to drink one can of a nutritional supplement daily (Boost Plus) (Mead Johnson) when taking their capsules. Subjects ingested their dietary supplements daily for a period of 4 months. Both the subjects and the experimenter were masked to the experimental groups.
(§4) Tests and Measurements. The battery of cognitive tests included tests of memory and processing speed or attention and a measure of self-reported mood. […] Early cognitive markers of the incidence of dementia and mortality: A longitudinal population-based study of the oldest old. International Journal of Geriatric Psychiatry, 12, 53-59; Payton, M., Riggs, K. M., Spiro III, A., Weiss, S. T. & Hu, H. (1998). […]

[3] = system: non-smoking women (60-80 years); test: Word List Memory Test; conditions: group mean
Excerpt: as §1, §2, §3, §4

[4] = system: non-smoking women (60-80 years); test: Stroop Test (computerized); conditions: group mean; for Stroop Test Total RT, Interference (NC-C): subtask 4 minus subtask 3
Excerpt: as §1, §2, §3, §4

[5] = system: serum lipoproteins (VLDL, LDL, HDL); test: Serum cholesterol, lipoproteins and lipoprotein subfractions by NMR spectroscopy; conditions: for Serum HDL concentration / Serum LDL concentration / Serum VLDL concentration / Serum total Cholesterol concentration: after 4 months of supplementation, mean ± se
Method: At study end (4 mo), serum was analyzed for total cholesterol, lipoproteins (VLDL, LDL, HDL) as well as lipoprotein subfractions using NMR spectroscopy (Otvos, J. D., Clin Lab, 2002. 48: p. 171-180). The NMR method employs the characteristic methyl group signals broadcast by lipoprotein subclasses of different size as the basis for their quantification. Each measurement includes the concentrations of 5 subclasses of HDL (larger numbers denoting larger subclasses), 3 subclasses of LDL and 6 subclasses of VLDL (V1-V6). Lipoprotein subclasses were grouped into large, intermediate and small subclasses. That is, large, intermediate, and small HDL were H5+H4, H3, and H2+H1, respectively. Large, intermediate and small LDL were L3, L2, and L1, respectively. And large, intermediate and small VLDL were V6+V5, V4+V3, and V2+V1, respectively.
Results are expressed as mean ±SE. Within each group, each subject was followed longitudinally and significant differences from baseline were measured using Student's paired t-test (Systat version10, Port Richmond, Calif. Group differences were measured using ANOVA followed by the Bonferroni post hoc test (Systat10).

[6] = system: non-smoking women (60-80 years); test: Digit Span Forward and Backward; conditions: group mean
Excerpt: as §1, §2, §3, §4

[7] = Baseline, before supplementation
[8] = Final, after 4 months of supplementation (DHA 800 mg/d and/or lutein 12 mg/d)
[9] = Final, after 4 months of supplementation

SMILES	Verbal Fluency [1, 7]	Verbal Fluency [1, 8]	MIR Apartment Test Delayed Recall (max. 10) [2, 7]	MIR Apartment Test Location Recall (max. 10) [2, 7]	MIR Apartment Test Delayed Recall (max. 10) [2, 9]	MIR Apartment Test Location Recall (max. 10) [2, 9]	Word List Memory Test Delayed Recall (max. 10) [3, 7]	Word List Memory Test Trial 1 Items Recalled (max. 10) [3, 7]	Word List Memory Test Trials to Learned List (max. 4) [3, 7]	Word List Memory Test Delayed Recall (max. 10) [3, 9]	Word List Memory Test Trial 1 Items Recalled (max. 10) [3, 9]	Word List Memory Test Trials to Learned List (max. 4) [3, 9]	Stroop Test Mean RT, Name Colors [4, 7]	Stroop Test Mean RT, Name Colors-Words [4, 7]	Stroop Test Mean RT, Read Words-Black [4, 7]	Stroop Test Mean RT, Read Words-Color [4, 7]	Stroop Test Total RT, Interference (NC-C) [4, 7]	Stroop Test Mean RT, Name Colors [4, 9]	Stroop Test Mean RT, Name Colors-Words [4, 9]	Stroop Test Mean RT, Read Words-Black [4, 9]	also measured
CC/C=C\C/C=C\C/C=C\C/C=C\C/C=C\C/C=C\CCC(=O)O [DHA, cis-4,7,10,13,16,19-docosahexaenoic acid]	15.0	17.8	9.4	9.9	9.4	10.0	8.1	6.3	3.0	8.6	5.9	3.0	838 ms	1269 ms	879 ms	715 ms	21.5 s	884 ms	1277 ms	748 ms	Stroop Test Mean RT, Read Words-Color [4, 9]: 727 ms; Stroop Test Total RT, Interference (NC-C) [4, 9]: 19.7 s; Serum HDL concentration [5]: 67 ± 3 mg cholesterol/dL; Serum LDL concentration [5]: 125 ± 5 mg cholesterol/dL; Serum VLDL concentration [5]: 78 ± 14 mg cholesterol/dL; Serum total Cholesterol concentration [5]: 209 ± 5 mg cholesterol/dL; Backward Digit Span Length [6, 7]: 5.4; Backward Digit Span Total [6, 7]: 7.9; Forward Digit Span Length [6, 7]: 6.6; Forward Digit Span Total [6, 7]: 8.4; Backward Digit Span Length [6, 9]: 5.8; Backward Digit Span Total [6, 9]: 8.4; Forward Digit Span Length [6, 9]: 6.7; Forward Digit Span Total [6, 9]: 8.5
CC1=C[C@H](O)CC(C)(C)[C@H]1/C=C/C(C)=C/C=C/C(C)=C/C=C/C=C(C)/C=C/C=C(C)/C=C/C1=C(C)C[C@@H](O)CC1(C)C [Lutein, lutein]	11.3	15.5	8.3	9.5	8.6	9.5	6.8	5.8	3.4	7.6	5.8	3.5	1008 ms	1492 ms	844 ms	753 ms	24.2 s	1014 ms	1462 ms	945 ms	Stroop Test Mean RT, Read Words-Color [4, 9]: 883 ms; Stroop Test Total RT, Interference (NC-C) [4, 9]: 22.4 s; Serum HDL concentration [5]: 70 ± 5 mg cholesterol/dL; Serum LDL concentration [5]: 113 ± 6 mg cholesterol/dL; Serum VLDL concentration [5]: 75 ± 12 mg cholesterol/dL; Serum total Cholesterol concentration [5]: 199 ± 8 mg cholesterol/dL; Intermediate HDL subclass, group comparison ([5]; study end (4 mo)): significantly greater in the L group than in the LD group; Backward Digit Span Length [6, 7]: 5.1; Backward Digit Span Total [6, 7]: 7.5; Forward Digit Span Length [6, 7]: 6.6; Forward Digit Span Total [6, 7]: 8.1; Backward Digit Span Length [6, 9]: 4.7; Backward Digit Span Total [6, 9]: 6.9; Forward Digit Span Length [6, 9]: 7.0; Forward Digit Span Total [6, 9]: 8.7
